Measurements from patent publication US20240082275A1, “Pharmaceutical formulations comprising 5-Chloro-N4-[2-(dimethylphosphoryl)phenyl]-N2-{2-methoxy-4-[4-(4-methylpiperazin-1-yl)piperidin-1-yl]phenyl}pyrimidine-2,4-diamine” (Takeda Pharmaceutical Company Limited, priority 2017, published 2024).

Experiment: Solid-state properties of brigatinib Form A (hygroscopicity, polymorphic conversion)
Assay type: physicochemical

hygroscopicity: non-hygroscopic
SMILES: COc1cc(N2CCC(N3CCN(C)CC3)CC2)ccc1Nc1ncc(Cl)c(Nc2ccccc2P(C)(C)=O)n1 [Brigatinib Form A, 5-chloro-N4-[2-(dimethylphosphoryl)phenyl]-N2-{2-methoxy-4-[4-(4-methylpiperazin-1-yl)piperidin-1-yl]phenyl}pyrimidine-2,4-diamine]
conversion to other polymorphic forms (solvent-mediated or solid-solid transitions, elevated temperature, elevated humidity, mechanical pressure or grinding): does not convert to other polymorphic forms
